According to patent publication US20100286136A1, “DIHYDRONAPHTHYRIDINYL AND RELATED COMPOUNDS FOR USE IN TREATING OPHTHALMOLOGICAL DISORDERS” (priority 2009, published 2010):

Biological target: T1, CCR2b (Homo sapiens, UniProt P41597)
T1 construct: host or cells: AequoScreen CCR2b cells
T1 sequence (P41597 1-360 isoform P41597-2): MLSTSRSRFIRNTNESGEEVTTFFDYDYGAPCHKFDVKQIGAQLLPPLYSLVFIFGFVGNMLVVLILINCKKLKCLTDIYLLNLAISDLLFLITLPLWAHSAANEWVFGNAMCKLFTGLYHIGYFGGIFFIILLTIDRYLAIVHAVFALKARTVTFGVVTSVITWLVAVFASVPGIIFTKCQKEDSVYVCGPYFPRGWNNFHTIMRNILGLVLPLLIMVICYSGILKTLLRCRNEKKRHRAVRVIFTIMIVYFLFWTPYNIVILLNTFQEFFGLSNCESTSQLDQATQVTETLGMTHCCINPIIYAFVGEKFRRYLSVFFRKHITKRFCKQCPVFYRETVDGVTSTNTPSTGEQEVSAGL
Test: AequoScreen CCR2b calcium flux assay, antagonist mode against reference agonist MCP-1
Format: cell-based
Conditions: AequoScreen CCR2b (FAST-060A) cells; inhibition of reference agonist MCP-1 at its EC80; read-out: IC50 (μM) Ca^++flux
Procedure: The biological activity of the compounds described herein can be evaluated using assays known in the art, such as the AequoScreen™ assay.
AequoScreen™ CCR2b (FAST-060A) cells grown to mid-log phase in culture media without antibiotics are detached with PBS-EDTA, centrifuged and resuspended in assay buffer (DMEM/HAM's F12 with HEPES, without phenol red+0.1% BSA protease free) at a concentration of 1×10^6 cells/mL. Cells are incubated at room temperature for at least 4 hours with coelenterazine h. Dose response curves are performed before testing. The reference agonist is MCP-1.
For agonist testing, 50 μL of cell suspension is mixed with 50 μL of test compound in a 96-well plate. The resulting emission of light is recorded using a Hamamatsu Functional Drug Screening System 6000 (FDSS 6000).
Following an incubation of 15 minutes after the first injection, 100 μL of the resulting cell suspension containing the test compound is mixed with 100 μL of the reference agonist in the 96 well test plate. The resulting emission of light is recorded using the same luminometer as for agonist testing.
Agonist activity of a test compound can be expressed as a percentage of the activity of the reference agonist at its EC100 concentration. Antagonist activity of a test compound can be expressed as a percentage of the inhibition of reference agonist activity at its EC80 concentration.

`COCC1(C(=O)N2CCc3ncc(C(F)(F)F)cc3C2)CCN(Cc2ccc3c(c2)N(C)C(=O)CO3)C1` (centres unmarked) [Example 32, 6-((3-(Methoxymethyl)-3-(3-(trifluoromethyl)-5,6,7,8-tetrahydro-1,6-naphthyridine-6-carbonyl)pyrrolidin-1-yl)methyl)-4-methyl-2H-benzo[b][1,4]oxazin-3(4H)-one] and `COCC1(C(=O)N2CCc3ncc(C(F)(F)F)cc3C2)CCN(C(C)c2ccc3c(c2)N(C)C(=O)CO3)C1` (centres unmarked) [Example 33, 6-(1-(3-(Methoxymethyl)-3-(3-(trifluoromethyl)-5,6,7,8-tetrahydro-1,6-naphthyridine-6-carbonyl)pyrrolidin-1-yl)ethyl)-4-methyl-2H-benzo[b][1,4]oxazin-3(4H)-one] cannot be ordered by IC50: under 0.2 µM for the first, under 0.2 µM for the second.

`COCC1(C(=O)N2CCc3ncc(C(F)(F)F)cc3C2)CCN(C(C)c2ccc3oc(=O)n(C)c3c2)C1` (centres unmarked) [Example 34, 5-(1-(3-(Methoxymethyl)-3-(3-(trifluoromethyl)-5,6,7,8-tetrahydro-1,6-naphthyridine-6-carbonyl)pyrrolidin-1-yl)ethyl)-3-methylbenzo[d]oxazol-2(3H)-one] and `COCC1(C(=O)N2CCc3ncc(C(F)(F)F)cc3C2)CCN(Cc2ccc3oc(=O)n(C)c3c2)C1` (centres unmarked) [Example 39, 5-((3-(Methoxymethyl)-3-(3-(trifluoromethyl)-5,6,7,8-tetrahydro-1,6-naphthyridine-6-carbonyl)pyrrolidin-1-yl)methyl)-3-methylbenzo[d]oxazol-2(3H)-one] cannot be ordered by IC50: under 0.2 µM for the first, under 0.2 µM for the second.

First: COCC1(C(=O)N2CCc3ncc(C(F)(F)F)cc3C2)CCN(C2CCC(O)(C3CC3)CC2)C1 (centres unmarked) [Example 35]
Second: COCC1(C(=O)N2CCc3ncc(C(F)(F)F)cc3C2)CCN(Cc2ccc3c(c2)n(C)c(=O)n3C)C1 (centres unmarked) [Example 38, 5-((3-(Methoxymethyl)-3-(3-(trifluoromethyl)-5,6,7,8-tetrahydro-1,6-naphthyridine-6-carbonyl)pyrrolidin-1-yl)methyl)-1,3-dimethyl-1H-benzo[d]imidazol-2(3H)-one]
The IC50 of the first is lower: 0.2 to 1 µM for the first, over 1 µM for the second.

First: COCC1(C(=O)N2CCc3ncc(C(F)(F)F)cc3C2)CCN(Cc2cc3c(ccc(=O)n3C)cc2Cl)C1 (centres unmarked) [Example 36, 6-Chloro-7-((3-(methoxymethyl)-3-(3-(trifluoromethyl)-5,6,7,8-tetrahydro-1,6-naphthyridine-6-carbonyl)pyrrolidin-1-yl)methyl)-1-methylquinolin-2(1H)-one]
Second: COCC1(C(=O)N2CCc3ncc(C(F)(F)F)cc3C2)CCN(Cc2cc3c(cc2Cl)oc(=O)n3C)C1 (centres unmarked) [Example 37, 6-Chloro-5-((3-(methoxymethyl)-3-(3-(trifluoromethyl)-5,6,7,8-tetrahydro-1,6-naphthyridine-6-carbonyl)pyrrolidin-1-yl)methyl)-3-methylbenzo[d]oxazol-2(3H)-one]
The IC50 of the first is higher: 0.2 to 1 µM for the first, under 0.2 µM for the second. The second is the more potent here.

Going from `CCOCC1(C(=O)N2CCc3ncc(C(F)(F)F)cc3C2)CCN(Cc2ccc3oc(=O)n(C)c3c2)C1` (centres unmarked) [Example 45, 5-((3-(Ethoxymethyl)-3-(3-(trifluoromethyl)-5,6,7,8-tetrahydro-1,6-naphthyridine-6-carbonyl)pyrrolidin-1-yl)methyl)-3-methylbenzo[d]oxazol-2(3H)-one] to `Cn1c(=O)oc2ccc(CN3CCC(CO)(C(=O)N4CCc5ncc(C(F)(F)F)cc5C4)C3)cc21` (centres unmarked) [Example 49, 5-((3-(Hydroxymethyl)-3-(3-(trifluoromethyl)-5,6,7,8-tetrahydro-1,6-naphthyridine-6-carbonyl)pyrrolidin-1-yl)methyl)-3-methylbenzo[d]oxazol-2(3H)-one], the IC50 rises from under 0.2 µM to over 1 µM. The first is the more potent here.

First: COCC1(C(=O)N2CCc3ccc(C(F)(F)F)cc3C2)CCN(Cc2ccc3oc(=O)n(C)c3c2)C1 (centres unmarked) [Example 46, 5-((3-(methoxymethyl)-3-(7-(trifluoromethyl)-1,2,3,4-tetrahydroisoquinoline-2-carbonyl)pyrrolidin-1-yl)methyl)-3-methylbenzo[d]oxazol-2(3H)-one]
Second: Cn1c(=O)oc2ccc(CN3CCC(CC#N)(C(=O)N4CCc5ncc(C(F)(F)F)cc5C4)C3)cc21 (centres unmarked) [Example 48, 2-(1-((3-methyl-2-oxo-2,3-dihydrobenzo[d]oxazol-5-yl)methyl)-3-(3-(trifluoromethyl)-5,6,7,8-tetrahydro-1,6-naphthyridine-6-carbonyl)pyrrolidin-3-yl)acetonitrile]
The IC50 of the first is lower: under 0.2 µM for the first, 0.2 to 1 µM for the second.

First: CC(C)C1(C(=O)N2CCc3ncc(C(F)(F)F)cc3C2)CCN(Cc2ccc3oc(=O)n(C)c3c2)C1 (centres unmarked) [Example 47, 5-((3-isopropyl-3-(3-(trifluoromethyl)-5,6,7,8-tetrahydro-1,6-naphthyridine-6-carbonyl)pyrrolidin-1-yl)methyl)-3-methylbenzo[d]oxazol-2(3H)-one]
Second: CC(C)CC1(C(=O)N2CCc3ncc(C(F)(F)F)cc3C2)CCN(Cc2ccc3c(c2)sc(=O)n3C)CC1 [Example 58, 6-((4-Isobutyl-4-(3-(trifluoromethyl)-5,6,7,8-tetrahydro-1,6-naphthyridine-6-carbonyl)piperidin-1-yl)methyl)-3-methylbenzo[d]thiazol-2(3H)-one]
The IC50 of the first is lower: under 0.2 µM for the first, over 1 µM for the second. The first is the more potent here.
